Reference: PMC8292455, “Kinetic characterisation and inhibitor sensitivity of Candida albicans and Candida auris recombinant AOX expressed in a self-assembled proteoliposome system” (Scientific Reports, 2021)

Tests used:
C. albicans AOX2 [1] = target: T1, C. albicans AOX2 (Candida albicans, UniProt Q9UV71); test: NADH oxidation at […] nm in NDH-2/AOX proteoliposomes, dose-response; type: biochemical
T1 construct: twin-strep tag (pET15b.TS, pTS.CalbAOX2) kept; from E. coli FN102; in self-assembled proteoliposomes
T1 sequence (Q9UV71 27-365): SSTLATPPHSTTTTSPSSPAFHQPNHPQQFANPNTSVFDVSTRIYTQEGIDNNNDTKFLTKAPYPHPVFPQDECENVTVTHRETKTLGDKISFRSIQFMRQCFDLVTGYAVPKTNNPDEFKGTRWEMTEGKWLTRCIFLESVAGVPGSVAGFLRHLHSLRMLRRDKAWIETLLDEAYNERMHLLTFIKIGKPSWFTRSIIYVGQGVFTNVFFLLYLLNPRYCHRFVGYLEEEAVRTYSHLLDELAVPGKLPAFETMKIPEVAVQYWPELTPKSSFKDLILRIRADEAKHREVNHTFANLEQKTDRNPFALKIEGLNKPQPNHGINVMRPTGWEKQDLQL

C. auris AOX [2] = target: T2, C. auris AOX (Candidozyma auris, UniProt A0A0L0NPQ3); test: as above; type: biochemical
T2 construct: twin-strep tag (pET15b.TS, pTS.CaAOX) kept; from E. coli FN102; in self-assembled proteoliposomes

NDH-2 = target: T3, NDH-2 (Caldalkalibacillus thermarum, UniProt F5L3B8); test: NADH oxidation at […] nm; type: biochemical; settings: 50 mM MOPS pH 7.5, 250 uM Q1, 300 uM NADH
T3 construct: gene CathTA2_0279; His-tagged, from E. coli C41 (plasmid pTRCndh2); predicted mass 44 kDa
T3 sequence (F5L3B8 1-399): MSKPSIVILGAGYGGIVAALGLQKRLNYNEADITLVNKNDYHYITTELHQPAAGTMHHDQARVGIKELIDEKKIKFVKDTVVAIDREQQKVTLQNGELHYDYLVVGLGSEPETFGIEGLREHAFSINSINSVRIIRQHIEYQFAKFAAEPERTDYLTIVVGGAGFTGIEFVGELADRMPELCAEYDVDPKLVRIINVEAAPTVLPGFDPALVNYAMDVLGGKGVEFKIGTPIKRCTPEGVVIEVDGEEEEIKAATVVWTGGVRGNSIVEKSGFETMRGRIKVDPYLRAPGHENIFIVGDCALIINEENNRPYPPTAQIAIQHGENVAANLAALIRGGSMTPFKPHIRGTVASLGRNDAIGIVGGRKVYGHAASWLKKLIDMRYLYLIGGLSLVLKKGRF

[3] = test system: COc1c(O)c(C)c(C/C=C(\C)CC/C=C(\C)CC/C=C(\C)CC/C=C(\C)CC/C=C(\C)CC/C=C(\C)CC/C=C(\C)CC/C=C(\C)CC/C=C(\C)CCC=C(C)C)c(O)c1OC; test: purified protein; settings: 65 mM MOPS pH 7.5, 300 uM NADH, excess NDH-2, Q10 concentration in the lipid phase
C. albicans AOX2 [4] = target: T1, C. albicans AOX2; test: oxygen consumption of NDH-2/AOX proteoliposomes (Oroboros oxygraph), dose-response; type: biochemical
C. auris AOX [5] = target: T2, C. auris AOX; test: as above; type: biochemical
purified protein = substrate: COc1c(O)c(C)c(C/C=C(\C)CC/C=C(\C)CC/C=C(\C)CC/C=C(\C)CC/C=C(\C)CC/C=C(\C)CC/C=C(\C)CC/C=C(\C)CC/C=C(\C)CCC=C(C)C)c(O)c1OC; test: purified protein; type: biochemical, Candida albicans; settings: 65 mM MOPS pH 7.5, 300 uM NADH, excess NDH-2, Q10 concentration in the lipid phase

T2 sequence (A0A0L0NPQ3 25-333 limits assumed): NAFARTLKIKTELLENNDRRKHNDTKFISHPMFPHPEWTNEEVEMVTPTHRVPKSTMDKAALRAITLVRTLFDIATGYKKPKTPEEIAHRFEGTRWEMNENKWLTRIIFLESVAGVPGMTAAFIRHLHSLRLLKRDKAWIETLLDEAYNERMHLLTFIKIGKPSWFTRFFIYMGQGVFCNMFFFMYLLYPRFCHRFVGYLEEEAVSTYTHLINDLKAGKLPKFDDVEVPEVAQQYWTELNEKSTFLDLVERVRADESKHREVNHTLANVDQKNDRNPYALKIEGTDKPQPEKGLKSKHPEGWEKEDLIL

Work on CC(C)=CCC/C(C)=C/Cc1c(O)c(Cl)c(C)c(C=O)c1O [CB, colletochlorin B] yielded an IC50 (C. albicans AOX2 [1]) of 53 ± 16 nM and an IC50 (C. auris AOX [2]) of 55 ± 10 nM.

Work on C/C(=C\Cc1c(O)c(Cl)c(C)c(C=O)c1O)CC/C=C(\C)[C@@H]1CC(=O)C(C)(C)O1 [AF, Ascofuranone] yielded an IC50 (C. albicans AOX2 [1]) of 213 ± 27 nM and an IC50 (C. auris AOX [2]) of 129 ± 18 nM.

In the case of NC(=O)C1=CN([C@@H]2O[C@H](COP(=O)(O)OP(=O)(O)OC[C@H]3O[C@@H](n4cnc5c(N)ncnc54)[C@H](O)[C@@H]3O)[C@@H](O)[C@H]2O)C=CC1 [NADH], the “NADH oxidation at 340 nm” value (NDH-2) is reported as “measured spectrophotometrically by measuring the oxidation of NADH at A340 nm”.

In the case of C. auris AOX (Candidozyma auris), the Km [3] is reported as 7.3 ± 1.4 mM and the kcat [3] is reported as 108 ± 3 s⁻¹.

In the case of O=C(NO)c1ccccc1O [SHAM], the IC50 (C. albicans AOX2 [4]) is reported as 3.5 ± 0.7 mM and the IC50 (C. auris AOX [5]) is reported as 5 ± 0.6 mM.

B1: C. albicans AOX2 (Candida albicans) (protein)
chain: SSTLATPPHSTTTTSPSSPAFHQPNHPQQFANPNTSVFDVSTRIYTQEGIDNNNDTKFLTKAPYPHPVFPQDECENVTVTHRETKTLGDKISFRSIQFMRQCFDLVTGYAVPKTNNPDEFKGTRWEMTEGKWLTRCIFLESVAGVPGSVAGFLRHLHSLRMLRRDKAWIETLLDEAYNERMHLLTFIKIGKPSWFTRSIIYVGQGVFTNVFFLLYLLNPRYCHRFVGYLEEEAVRTYSHLLDELAVPGKLPAFETMKIPEVAVQYWPELTPKSSFKDLILRIRADEAKHREVNHTFANLEQKTDRNPFALKIEGLNKPQPNHGINVMRPTGWEKQDLQL
notes: twin-strep tag (pET15b.TS, pTS.CalbAOX2) kept; from E. coli FN102; in self-assembled proteoliposomes
B1 gave a Km (purified protein) of 6.3 ± 1.3 mM and a kcat (purified protein) of 404 ± 51 s⁻¹.
